{"source": "paper PMC11434868", "about": "“Synthesis and Antiproliferative Effect of 3,4,5-Trimethoxylated Chalcones on Colorectal and Prostatic Cancer Cells” (Pharmaceuticals, 2024)", "key": {"[1]": {"test_system": "HT-29", "assay": "Trypan blue dye exclusion method on HT-29", "type": "cell-based, human", "method": "(§1) Human CRC (HCT116 and HT-29) and PCa (DU145 and PC3) cell lines were purchased from the American Type Culture Collection (ATCC—LGC Standards, Molsheim, France). All cells were grown in RPMI 1640 medium supplemented with 10% FBS, 1% L-glutamine, 100 U/mL penicillin, and 100 μg/mL streptomycin. Cultures were maintained in a humidified atmosphere containing 5% CO2 at 37 °C. Cells were seeded in 75 cm^2 culture flasks at 1.2 × 10^4 cells/cm^2 for HCT116, DU145, and PC3 cells, and 2.0 × 10^4 for HT-29 cells. Cells were grown for 24 h in culture medium prior to exposure or not to obtain the synthesized compounds. Stock solutions (10^−2 M in DMSO) of each compound were diluted in culture medium to obtain appropriate final concentrations.\n(§2) • (a) MTT assay: The antiproliferative effect of all compounds was determined using MTT assay (a metabolic activity test). Briefly, cells were seeded in 96-well culture plates at 4 × 10^3 cells/well for HCT116, PC3, and DU145 cells and 6 × 10^3 cells/well for HT-29 cells (100 µL/well), and grown for 24 h in culture medium prior to exposure or not to obtain compounds 1–15 with concentrations ranging from 5 nM to 50 μM. After 24 and 48 h of treatment, MTT (5 mg/mL in PBS) was added and incubated for another 3 h. MTT was then removed from the wells before adding 100 μL/well of DMSO. The optical density was detected with a microplate reader (Multiskan FC, Thermoscientific, Bordeaux, France) at 550 nm and cell viability was expressed as a percentage of each treatment condition compared to control cells. IC50 values were calculated for all compounds from the dose–response curve. Data are expressed as the arithmetic means ± standard error of the mean (SEM) of separate experiments. All experiments were performed at least in triplicate. • (b) Trypan blue dye exclusion method: Cells were grown for 24 h then treated with compounds 10 and 13 at indicated concentrations. After 48 h of treatment, cells were trypsinized and resuspended in complete medium. Each sample was mixed with Trypan blue solution (0.14% in HBSS, Invitrogen-GIBCO, ThermoFisher, Illkirch, France). Colored (non-viable) and dye-excluding (viable) cells were counted with the LUNA-II automated cell Counter (Logos Biosystems; MC2, Aubière, France). The control was normalized to 100% including viable and dead cells. The results indicated on the histograms were expressed as the percentage of cells compared to the control. IC50 values were determined from the percentages of viable cells compared to the control."}, "[2]": {"test_system": "caspase-3 and PARP in HT-29 cells", "assay": "Western blot of apoptosis-related proteins in HT-29", "type": "cell-based, human", "conditions": "HT-29, 48 h", "method": "(§3) For total protein extraction, collected samples of each condition were washed in PBS. Then, the total cell pool was centrifuged at 200 g for 5 min at 4 °C and homogenized in RIPA lysis buffer (50 mM HEPES, pH 7.5, 150 mM NaCl, 1% sodium deoxycholate, 1% NP-40, 0.1% SDS, […] of aprotinin) containing protease inhibitors according to the manufacturer’s instructions. After quantification of protein levels using the Bradford method, proteins ([…]) were separated on 12.5% SDS-PAGE gels and transferred to PVDF membranes (GE Healthcare Life Science—Fisher Scientific). Membranes were probed with respective antibodies against human caspase-3, cleaved caspase-3, and PARP according to the manufacturer’s instructions. After incubation with appropriate secondary antibodies, blots were developed using the “ImmobilonWestern” substrate, following the manufacturer’s protocol, and G:BOX system (Syngene, Cambridge, UK). Membranes were then reblotted with human anti-β-actin used as a loading control."}, "[3]": {"test_system": "HCT116", "assay": "Trypan blue dye exclusion method on HCT116", "type": "cell-based, human", "method": "as §1, §2"}, "[4]": {"test_system": "DU145", "assay": "Trypan blue dye exclusion method on DU145", "type": "cell-based, human", "method": "as §1, §2"}, "[5]": {"test_system": "DU145", "assay": "MTT assay, antiproliferative effect on DU145", "type": "cell-based", "conditions": "Homo sapiens", "method": "as §1, §2"}, "[6]": {"test_system": "PC3", "assay": "MTT assay, antiproliferative effect on PC3", "type": "cell-based", "conditions": "Homo sapiens", "method": "as §1, §2"}, "[7]": {"test_system": "HCT116", "assay": "MTT assay, antiproliferative effect on HCT116", "type": "cell-based", "conditions": "Homo sapiens", "method": "as §1, §2"}, "[8]": {"test_system": "human CRC (HCT116 and HT-29) and human PCa (DU145 and PC3) cell lines", "assay": "MTT assay, summary statements over the cell lines", "type": "cell-based", "conditions": "48 h, read-out: IC50 towards the selected cell lines", "method": "as §1, §2"}, "[9]": {"test_system": "PC3", "assay": "Trypan blue dye exclusion method on PC3", "type": "cell-based, human", "method": "as §1, §2"}, "[10]": {"test_system": "HT-29", "assay": "MTT assay, antiproliferative effect on HT-29", "type": "cell-based, human", "conditions": "Homo sapiens", "method": "as §1, §2"}, "[11]": {"test_system": "caspase-3 and PARP in DU145 cells", "assay": "Western blot of apoptosis-related proteins in DU145", "type": "cell-based, human", "conditions": "DU145, 48 h", "method": "as §3"}, "[12]": {"test_system": "caspase-3 and PARP in PC3 cells", "assay": "Western blot of apoptosis-related proteins in PC3", "type": "cell-based, human", "conditions": "PC3, 48 h", "method": "as §3"}}, "note": "Read-outs that look alike come from different tables or passages of the source.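 Throughout, for PARP cleavage (89 kDa fragment): compared with untreated control cells.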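 Throughout, for cleaved caspase-3: compared with untreated control cells.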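 Throughout, for native PARP expression: compared with untreated control cells.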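 Throughout, for pro-caspase-3 expression: compared with untreated control cells.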"}
{"smiles": "COc1cc(C(=O)/C=C/c2c[nH]c3ccccc23)cc(OC)c1OC", "note": "[chalcone 10, (E)-3-(1H-indol-3-yl)-1-(3,4,5-trimethoxyphenyl)prop-2-en-1-one]", "values": [{"measurement": "Dead cells", "setting": "[1]; HT-29, 48 h, 0.010 µM", "value": 3.78, "unit": "%"}, {"measurement": "Dead cells", "setting": "[1]; HT-29, 48 h, 0.050 µM", "value": 3.36, "unit": "%"}, {"measurement": "Dead cells", "setting": "[1]; HT-29, 48 h, 0.100 µM", "value": 1.68, "unit": "%"}, {"measurement": "IC50", "setting": "[1]; Homo sapiens, HT-29, 48 h, from percentages of viable cells, read-out: IC50 Trypan Blue Test HT-29", "value": 21, "unit": "nM"}, {"measurement": "viability at 0.01 µM", "setting": "[1]; Homo sapiens, HT-29, 48 h, 0.010 µM, read-out: Viable cells", "value": 76.2, "unit": "%"}, {"measurement": "viability at 0.05 µM", "setting": "[1]; Homo sapiens, HT-29, 48 h, 0.050 µM, read-out: Viable cells", "value": 15.9, "unit": "%"}, {"measurement": "viability at 0.1 µM", "setting": "[1]; Homo sapiens, HT-29, 48 h, 0.100 µM, read-out: Viable cells", "value": 10.7, "unit": "%"}, {"measurement": "PARP cleavage (89 kDa fragment)", "setting": "[2]", "value": "induced PARP cleavage"}, {"measurement": "cleaved caspase-3", "setting": "[2]", "value": "more weakly produced"}, {"measurement": "native PARP expression", "setting": "[2]", "value": "strong decreased expression"}, {"measurement": "pro-caspase-3 expression", "setting": "[2]", "value": "decreased"}, {"measurement": "Dead cells", "setting": "[3]; HCT116, 48 h, 0.050 µM", "value": 6.76, "unit": "%"}, {"measurement": "Dead cells", "setting": "[3]; HCT116, 48 h, 0.100 µM", "value": 0.85, "unit": "%"}, {"measurement": "IC50", "setting": "[3]; Homo sapiens, HCT-116, 48 h, from percentages of viable cells, read-out: IC50 Trypan Blue Test HCT116", "value": 43, "unit": "nM"}, {"measurement": "viability at 0.01 µM", "setting": "[3]; Homo sapiens, HCT-116, HCT116, 48 h, 0.010 µM, percentage of cells compared to control, read-out: Viable cells", "value": 97.7, "unit": "%"}, {"measurement": "viability at 0.05 µM", "setting": "[3]; Homo sapiens, HCT-116, HCT116, 48 h, 0.050 µM, read-out: Viable cells", "value": 43.2, "unit": "%"}, {"measurement": "viability at 0.1 µM", "setting": "[3]; Homo sapiens, HCT-116, HCT116, 48 h, 0.100 µM, read-out: Viable cells", "value": 17.4, "unit": "%"}, {"measurement": "Dead cells", "setting": "[4]; DU145, 48 h, 0.010 µM", "value": 2.21, "unit": "%"}, {"measurement": "Dead cells", "setting": "[4]; DU145, 48 h, 0.050 µM", "value": 3.40, "unit": "%"}, {"measurement": "Dead cells", "setting": "[4]; DU145, 48 h, 0.100 µM", "value": 5.30, "unit": "%"}, {"measurement": "IC50", "setting": "[4]; Homo sapiens, DU-145, 48 h, from percentages of viable cells, read-out: IC50 Trypan Blue Test DU145", "value": 40, "unit": "nM"}, {"measurement": "viability at 0.01 µM", "setting": "[4]; Homo sapiens, DU-145, DU145, 48 h, 0.010 µM, read-out: Viable cells", "value": 88.9, "unit": "%"}, {"measurement": "viability at 0.05 µM", "setting": "[4]; Homo sapiens, DU-145, DU145, 48 h, 0.050 µM, read-out: Viable cells", "value": 40.6, "unit": "%"}, {"measurement": "viability at 0.1 µM", "setting": "[4]; Homo sapiens, DU-145, DU145, 48 h, 0.100 µM, read-out: Viable cells", "value": 18.4, "unit": "%"}, {"measurement": "IC50", "setting": "[5]; DU-145, 24 h, read-out: IC50 DU145 24 h", "value": "51 ± 6", "unit": "nM"}, {"measurement": "IC50", "setting": "[5]; DU-145, 48 h, read-out: IC50 DU145 48 h", "value": "20 ± 2", "unit": "nM"}, {"measurement": "IC50", "setting": "[6]; PC-3, 24 h, read-out: IC50 PC3 24 h", "value": "44 ± 6", "unit": "nM"}, {"measurement": "IC50", "setting": "[6]; PC-3, 48 h, read-out: IC50 PC3 48 h", "value": "17 ± 5", "unit": "nM"}, {"measurement": "IC50", "setting": "[7]; HCT-116, 24 h, read-out: IC50 HCT116 24 h", "value": "282 ± 12", "unit": "nM"}, {"measurement": "IC50", "setting": "[7]; HCT-116, 48 h, read-out: IC50 HCT116 48 h", "value": "39 ± 1", "unit": "nM"}, {"measurement": "IC50", "setting": "[8]", "value": "< 40", "unit": "nM"}, {"measurement": "IC50", "setting": "[8]; Homo sapiens", "value": "< 50", "unit": "nM"}, {"measurement": "IC50", "setting": "[9]; Homo sapiens, PC-3, 48 h, from percentages of viable cells, read-out: IC50 Trypan Blue Test PC3", "value": 32, "unit": "nM"}, {"measurement": "viability at 0.01 µM", "setting": "[9]; Homo sapiens, PC-3, PC3, 48 h, 0.010 µM, read-out: Viable cells", "value": 91.9, "unit": "%"}, {"measurement": "viability at 0.05 µM", "setting": "[9]; Homo sapiens, PC-3, PC3, 48 h, 0.050 µM, read-out: Viable cells", "value": 31.3, "unit": "%"}, {"measurement": "viability at 0.1 µM", "setting": "[9]; Homo sapiens, PC-3, PC3, 48 h, 0.100 µM, read-out: Viable cells", "value": 16.5, "unit": "%"}, {"measurement": "Dead cells", "setting": "[9]; PC3, 48 h, 0.010 µM", "value": 9.33, "unit": "%"}, {"measurement": "Dead cells", "setting": "[9]; PC3, 48 h, 0.100 µM", "value": 4.44, "unit": "%"}, {"measurement": "IC50", "setting": "[10]; HT-29, 24 h, 24 h, read-out: IC50 HT-29 24 h", "value": "41 ± 1", "unit": "nM"}, {"measurement": "IC50", "setting": "[10]; HT-29, 48 h, 48 h, read-out: IC50 HT-29 48 h", "value": "28 ± 1", "unit": "nM"}, {"measurement": "PARP cleavage (89 kDa fragment)", "setting": "[11]", "value": "induced PARP cleavage"}, {"measurement": "cleaved caspase-3", "setting": "[11]", "value": "clearly observed"}, {"measurement": "native PARP expression", "setting": "[11]", "value": "strong decreased expression"}, {"measurement": "pro-caspase-3 expression", "setting": "[11]", "value": "decrease was less marked"}, {"measurement": "PARP cleavage (89 kDa fragment)", "setting": "[12]", "value": "induced PARP cleavage"}, {"measurement": "cleaved caspase-3", "setting": "[12]", "value": "clearly observed"}, {"measurement": "native PARP expression", "setting": "[12]", "value": "strong decreased expression"}, {"measurement": "pro-caspase-3 expression", "setting": "[12]", "value": "decreased"}]}
